From patent US11612628B2, “Compositions for the treatment of articular disorders” (Aboca S.p.A. Società Agricola, priority 2017, dated 2023)
Values joined by “and” are separate entries in the source; they are usually repeats but may differ in a detail not shown here. Equal values may be shown once.

Legend:
Type in all cases: in vivo, Sprague-Dawley rats
[1] = test system: Monoiodine Acetate-Induced Osteoarthritis Pain Model; test: Incapacitance test, MIA-induced osteoarthritis rats; conditions: for Incapacitance test Δ Weight (contralateral - ipsilateral paw): 20 μL i.a. day 8 after MIA, Table 2; for Incapacitance test Δ Weight (paw contralateral - ipsilateral): 20 μL i.a. of fraction (2 mg/ml) or triamcinolone acetonide (100 μg), Table 9
Experimental: (§1) Damage to the joint was induced by an individual intraarticular administration, in the paw of a pre-anesthetized rat, of 2 mg of […] (MIA) (volume: 25 μl) according to what described by Guingamp et al., Arthritis Rheum., 40:1670-1679, 1997.
(§2) The experiments described below were performed by injecting into the joint 20 μl of • control (physiological solution); • extract of lyophilized Echinacea purpurea, fraction soluble in hydroalcoholic solution 40-50%, denoted in the figures as 13C1608:2-10-20 mg/ml in PBS (phosphate buffered saline); • extract of lyophilized Centella asiatica, fraction soluble in hydroalcoholic solution 65-75%, denoted in the figures as 14G1862:0.2-1-2 mg/ml in PBS; • bovine synovial fluid: as is; • Hyalgan (Low-molecular weight Hyaluronic acid sodium salt (MW ˜500-730 kDa)):as is; • Jonexa (mixture comprised of a hylastan gel, i.e. a hyaluronic acid crosslinked with divinyl sulfone, and a sodium hyaluronate liquid in the gel-liquid ratio of 80:20): as is; • extract of Centella asiatica fraction soluble in hydroalcoholic solution 65-75%, denoted in the figures as 14G1862: 2 mg/ml in PBS • extract of lyophilized Centella asiatica, fraction soluble in hydroalcoholic solution, denoted in the figures as ABO-AR-2016-391: 2 mg/ml in PBS; • extract of lyophilized Centella asiatica, fraction soluble in hydroalcoholic solution, corresponding to the permeate of fraction ABO-AR-2016-391 after filtration, denoted in the figures as ABO-AR-2016-392:2 mg/ml in PBS; • extract of lyophilized Centella asiatica, fraction soluble in hydroalcoholic solution, corresponding to the retentate of fraction ABO-AR-2016-391 after filtration, denoted in the figures as ABO-AR-2016-393:2 mg/ml in PBS; • Triamcinolone acetonide: 100 μg/[…] • MIX (coextract) Centella+Echinacea lot 17H0246, as described above: 11 mg/ml in water f.p.i.
(§3) Injected material: 20 μL of each sample assayed were injected into rat tibiotarsal joint (using a 26Gx3/8 needle) at […] from damage induction by MIA.
(§4) The mixture of plant extracts was solubilized in accordance with the following protocol: 5.5 g of lyophilized mixture were introduced in a beaker containing 450 g of water and left under stirring 15 min; thereafter, the weight of the liquid was brought to 500 g. For each injection, 30 g of solution were collected and filtered in sequence with 0.45-μ, and 0.22-μm filters. For each filtering, the first 3-4 g of solution were discarded. 20 μL of mixture were injected into the tibiotarsal joint of the rat (using a 26Gx3/8 needle) after having flexed its paw so as to form a 90°-degree angle, at day 8 from articular (joint) damage induction by MIA. For the other substances as well 20 μL of solution were injected (Hyalgan 10 mg/ml; triamcinolone acetonide 100 μg/20m1).
The test is based on the evaluation of the pressure exerted by a rat under conditions of normal posture on each of the hind legs (Hay et al. Neurosci. 78:843-850, 1997). Rats were placed into a small plexiglass box, their hind legs positioned onto two transducers recording the weight the rat distributes on each of the two paws. In case a neuropathy or an inflammation has been induced on one paw, the rat will exert less weight on said paw, compared to the other one.

[2] = test system: Monoiodine Acetate-Induced Osteoarthritis Pain Model; test: Beam balance test, MIA-induced osteoarthritis rats; conditions: for Beam balance test score, from normal (0) to pathological (4): 20 μL i.a. day 8 after MIA, Table 3
Experimental: as §1, §2, §4
A 1-meter-long wooden beam having a 1 cm-square section was placed at a height of about 40 cm. […]

rat tibiotarsal joint = test: Histology of the tibiotarsal joint, MIA-treated rats
Experimental: as §1, §2, §3
Tissue samples were fixed in 4% formalin in phosphate buffer for 24 hours. Subsequently, samples were decalcified for 28 days in a suitable decalcifying solution (1.6M formic acid, 0.76M sodium formate). At the end of the decalcification, the samples were dehydrated by passages in alcohol with increasing titer, and then included in paraffin. From samples thus processed, 7 μm-thick sections were obtained which were stained by Hematoxylin-Eosin.
The samples were observed under transmitted light optical microscope to assess the morphological parameters subject of analysis: • Inflammatory infiltrate • Synovial hyperplasia • Fibrin deposition in the joint space • Synovial vascularization • Cartilage erosion • Bone erosion • Joint space width
Every morphological parameter was evaluated by a specially provided score (0:absent, 1:scarce, 2:moderate, 3:serious). The evaluation was performed by three separate operators, in blind relative to the origin of the slides. A fourth operator collected data and obtained the final means. For each joint, at least three slides, and for each group at least 6 animals were evaluated. Results are expressed as mean±standard error.

[3] = test system: Monoiodine Acetate-Induced Osteoarthritis Pain Model; test: Paw pressure test, MIA-induced osteoarthritis rats
Experimental: as §1, §2, §3, §4
An analgesimeter (Ugo Basile, Varese, Italy) was used. A pressure increasing at a constant rate (32 g/s) was applied on the hind paw of the animal by a blunt conical element. The nociceptive threshold of the rat was expressed as that force to which the animal reacts by withdrawing the paw or vocalizing (Leighton et al., 1988).

[4] = test system: Monoiodine Acetate-Induced Osteoarthritis Pain Model; test: Animex test (spontaneous activity), MIA-induced osteoarthritis rats; conditions: for Animex test Number of movements: 20 μL i.a. day 8 after MIA, Table 4
Experimental: as §1, §2
as §4, with “For the other substances as well 20 μL of solution were injected (Hyalgan 10 mg/ml; triamcinolone acetonide 100 μg/20m1).” left out
The instrument enables to record the spontaneous activity of the animals through use of electromagnetic fields and resonance circuits. […] Variations are recorded by a number counter.

[5] = coextract study, single i.a. 20 μL, days 14, 30, 60
[6] = Centella fractions study, FIGS. 3 and 4

## CC1(C)O[C@@H]2C[C@H]3[C@@H]4CCC5=CC(=O)C=C[C@]5(C)[C@@]4(F)[C@@H](O)C[C@]3(C)[C@]2(C(=O)CO)O1 [triamcinolone acetonide, Triamcinolone acetonide]
[1]; Centella fractions study, fractions 2 mg/ml, triamcinolone acetonide 100 μg
  Incapacitance test effect (in words): active both at days 14 and 30
[1]; Day 14
  Incapacitance test Δ Weight (contralateral - ipsilateral paw): 45.7 ± 3.9^^ g
  Incapacitance test Δ Weight (paw contralateral - ipsilateral): 28.7 ± 3.2^ g
[1]; Day 30
  Incapacitance test Δ Weight (contralateral - ipsilateral paw): 25.4 ± 4.3^^ g
  Incapacitance test Δ Weight (paw contralateral - ipsilateral): 15.6 ± 5.4^ g
[1]; Day 60
  Incapacitance test Δ Weight (contralateral - ipsilateral paw): 20.9 ± 5.4^ g
  Incapacitance test Δ Weight (paw contralateral - ipsilateral): 5.6 ± 4.4 g
[1]; [5]
  reduction of MIA-induced postural alteration, Incapacitance test (in words): reduces, it also in a statistically significant manner, MIA-induced alteration at all timings considered
[2]; Day 14
  Beam balance test score, from normal (0) to pathological (4): 1.8 ± 0.2^
[2]; Day 30
  Beam balance test score, from normal (0) to pathological (4): 1.3 ± 0.2
[2]; Day 60
  Beam balance test score, from normal (0) to pathological (4): 0.8 ± 0.2
[2]; [5]
  motor abilities, Beam balance test (in words): statistical significance is reached solely at day 14
Rat tibiotarsal joint; [6]
  cartilage and bone tissue erosion (histology, in words): significant effectiveness
  inflammatory infiltrate (histology, in words): significant effectiveness
  joint space reduction (histology, in words): reduced effectiveness to 15- and 30-day timings and a more marked effectiveness after 60 days
  morphological parameters overall (histology, in words): only partially reduces the damaging effects of MIA
  other parameters: synovial hyperplasia, fibrin deposition, synovial vascularization (histology, in words): reduced effectiveness to 15- and 30-day timings and a more marked effectiveness after 60 days
Rat tibiotarsal joint; coextract study, FIG. 18-19
  articular space width (histology, in words): Evident effects
  erosion of cartilage and subchondral bone (histology, in words): analogous result
  fibrin deposition in the articular space (histology, in words): More moderate effects
  inflammatory infiltrate (histology, in words): capable of eliminating the presence of inflammatory infiltrate at all timings analyzed
  synovial hyperplasia and vascularization (histology, in words): More moderate effects
[3]; Day 14, contralateral, 20 μL i.a. day 8 after MIA, Table 1
  Paw pressure test Weight: 64.5 ± 0.9 g
[3]; Day 14, contralateral, 20 μL i.a. of fraction (2 mg/ml) or triamcinolone acetonide (100 μg), Table 8
  Paw pressure test Weight: 65.3 ± 1.0 g
[3]; Day 14, ipsilateral, 20 μL i.a. day 8 after MIA, Table 1
  Paw pressure test Weight: 51.9 ± 1.3^^ g
[3]; Day 14, ipsilateral, 20 μL i.a. of fraction (2 mg/ml) or triamcinolone acetonide (100 μg), Table 8
  Paw pressure test Weight: 52.8 ± 1.1 g
[3]; Day 30, contralateral, 20 μL i.a. day 8 after MIA, Table 1
  Paw pressure test Weight: 68.4 ± 1.6 g
[3]; Day 30, contralateral, 20 μL i.a. of fraction (2 mg/ml) or triamcinolone acetonide (100 μg), Table 8
  Paw pressure test Weight: 65.8 ± 0.5 g
[3]; Day 30, ipsilateral, 20 μL i.a. day 8 after MIA, Table 1
  Paw pressure test Weight: 57.4 ± 0.4^ g
[3]; Day 30, ipsilateral, 20 μL i.a. of fraction (2 mg/ml) or triamcinolone acetonide (100 μg), Table 8
  Paw pressure test Weight: 56.7±2.5 g and 56.7 ± 2.5^^ g
[3]; Day 60, contralateral, 20 μL i.a. day 8 after MIA, Table 1
  Paw pressure test Weight: 64.9 ± 2.1 g
[3]; Day 60, contralateral, 20 μL i.a. of fraction (2 mg/ml) or triamcinolone acetonide (100 μg), Table 8
  Paw pressure test Weight: 66.4 ± 0.7 g
[3]; Day 60, ipsilateral, 20 μL i.a. day 8 after MIA, Table 1
  Paw pressure test Weight: 63.0 ± 1.5^ g
[3]; Day 60, ipsilateral, 20 μL i.a. of fraction (2 mg/ml) or triamcinolone acetonide (100 μg), Table 8
  Paw pressure test Weight: 61.3 ± 1.6 g
[3]; [5]
  antiperalgesic effect, Paw pressure test (in words): significantly reduces the articular pain reaction at all timings
[4]; Day 14
  Animex test Number of movements: 487.3 ± 57.3^
[4]; Day 30
  Animex test Number of movements: 583.3 ± 45.2^
[4]; Day 60
  Animex test Number of movements: 688.9 ± 54.2^
[4]; [5]
  spontaneous mobility, Animex test (in words): effectiveness is lower than that of the plant mixture
